Results as given in patent US4609725A, “Cardiac atrial peptides” (Merck & Co., Inc., priority 1984, dated 1986).

How the values were obtained:
[1] = system: serotonin contracted rat aortae; format: cell-based
Source text: (§1) Under the conditions described above, conversion of non-iodinated ANF peptide fragment to the iodinated peptide was approximately 48%, based on the absorbance of the respective HPLC fractions and by amino acid analysis.

[2] = system: serotonin contracted rabbit aortae; format: cell-based
Source text: as §1

## CC[C@H](C)[C@@H]1NC(=O)[C@H](CCCNC(=N)N)NC(=O)[C@H](CC(=O)O)NC(=O)[C@H]([C@@H](C)CC)NC(=O)[C@H](CCCNC(=N)N)NC(=O)CNC(=O)CNC(=O)[C@H](Cc2ccccc2)NC(=O)[C@@H](NC(=O)[C@H](CO)NC(=O)[C@H](CO)NC(=O)[C@H](CCCNC(=N)N)NC(=O)[C@@H](N)CCCNC(=N)N)CSSC[C@@H](C(=O)N[C@@H](CC(N)=O)C(=O)N[C@@H](CO)C(=O)N[C@@H](Cc2ccccc2)C(=O)N[C@@H](CCCNC(=N)N)C(=O)N[C@@H](Cc2ccc(O)c(I)c2)C(=O)O)NC(=O)CNC(=O)[C@H](CC(C)C)NC(=O)CNC(=O)[C@H](CO)NC(=O)[C@H](CCC(N)=O)NC(=O)[C@H](C)NC(=O)CNC1=O [iodinated ANF peptide fragment]
[1]
  IC50: 1.05 nM
[1]; serotonin contracted rat aortae
  extent of vasorelaxation: complete vasorelaxation
[2]
  IC50: 1.65 nM
[2]; serotonin contracted rabbit aortae
  extent of vasorelaxation: complete vasorelaxation
